Assay results: patent US5053006A, “Method for the permanent occlusion of arteries” (priority 1990, dated 1991)
“And” between values parts separate entries of the source, which are not always exact repeats. Equal entries are not always repeated.

Tests used:
[1] = test system: femoral artery; experiment: Argon laser photothrombotic occlusion of femoral artery (Example 1); assay type: in vivo, rat (male Wistar)
Excerpt: Male Wistar rats, each weighing 280 to 330 gm, were anesthetized with 1.5% halothane and maintained on a 70:30 mixture of nitrous oxide and oxygen delivered by a closely fitting Mylar face mask (Watson et al., J. Neurosurg., 66:748-754, 1987, the disclosure of which is hereby incorporated by reference and relied upon). After separation of the temporal musculature, the middle cerebral artery was exposed via a small subtemporal craniectomy produced by a high-speed drill under an operating microscope; the dura was left intact. The common carotid arteries were exposed bilaterally by a midline incision extending from the mental process to the sternal notch; the sternocleidomastoid muscle was then retracted laterally to expose the underlying artery. Bleeding from the operative site was controlled with pressure and Gelfoam. The animal was then prepared for irradiation by filling the surgical cavity with saline, just submerging the exposed blood vessel. The saline solution was kept clear by frequent suction and irrigation. The femoral arteries were exposed by bilateral inguinal incisions and were prepared for irradiation in a fashion similar to that described above.
As assessed by observation of rose bengal fluorescence, thrombus development in the common carotid or femoral arteries followed a course similar to that observed in the middle cerebral artery, except that the thrombus appeared as a […] as viewed through the blood vessel wall. Intense scattering of the incident laser light was also noted at about the time that arterial pulsations at the level of irradiation ceased.
Ultrastructural studies were carried out at either 30 minutes or 7 days following irradiation. Animals were perfused transcardially with 0.9% sodium chloride solution followed by 2% paraformaldehyde and 2.5% glutaraldehyde in a 0.1 M sodium phosphate buffer. Perfusion pressure was monitored throughout the procedure and was maintained at 100 mm Hg. After perfusion fixation, the femoral and common carotid arteries were isolated and placed in fixative for an additional 2 hours. To isolate the middle cerebral artery, the brain was first removed from the cranial vault and placed in fixative for a 2-hour period. Next, the whole brain was placed in phosphate-buffered 1% osmium tetroxide for 2 minutes.

[2] = test system: corneal cholesterol; experiment: Corneal cholesterol content after photothrombosis (Example 6); assay type: in vivo, New Zealand white rabbit; settings: for Corneal Cholesterol Concentration, Difference Between Treated and Untreated Eyes / Corneal Cholesterol Concentration, Difference Between Treated and Untreated Eyes, %: individual rabbit
Excerpt: Nine New Zealand white strain rabbits weighting 1 to 2 kg were rendered hypercholesterolemic by foods that contained high levels of cholesterol, as described in Stock et. al., Arch. Ophthalmol., 103:726-730, 1985; and Mendelsohn et al., Ophthalmic Surg., 17:502-508, 1986. Eight days after commencement of the high-cholesterol diet, corneal sutures were implanted in both eyes according to the surgical procedure described in Mendelsohn et al., Ophthalmic Surg., 17:502-508, 1986.
On day 22, slit-lamp photographs and fluorescein angiograms were obtained of all corneas (Mendelsohn et al., Arch. Ophthalmol., 105:983-988, 1987, the disclosure of which is hereby incorporated by reference and relied upon). On the next day, one eye of each rabbit underwent laser surgery, with the other eye serving as a comparative control. Rose bengal dye was dissolved at a concentration of 30 mg/ml in 0.9% saline solution. For the initial injection, the dye solution was administered at a total body concentration of 45 mg/kg. For the two animals in which the procedure took longer than 25 minutes, a booster injection of 15 mg/kg was administered. Irradiations of corneal vessels were carried out with an argon ion laser (Model 95, Cooper Laser-Sonica, Sunnyvale, Calif.) operated in the TEM00 mode at 514.5 nm. The beam was directed toward an aluminized mechanical shutter (AW Vincent Associates, Rochester, NY), which reflected it at a right angle through a 514.5-nm custom interference filter with a transmittance of 92% (Omega Optical, Brattleboro, VT) and then through a fused silica lens with a focal length of 7.5 cm for focusing into a 2.5-m fiberoptic cable 400 μm in diameter. In the optical fiber, the gaussian input beam profile was converted into an output beam. The output was collimated by a plano convex lens 3.5 cm in focal length and focused with a plano convex lens with a focal length of 1.0 cm. The lenses were mounted in a beam telescope attached to an X-Y positioning device (Daedal Inc., Harrison City, Pa.). The beam diameter was measured with a calibrated reticle in the ocular of a ×20 operating microscope. By observing, through a 514.5-nm rejection filter, the fluorescence of a white card impregnated with rhodamine B, the minimum diameter of the organe fluorescent spot at the focal point was determined to be 63 μm. Combining the transmission efficiencies of the three uncoated lenses (92% per lens, 76% total transmission) with those of the optical fiber and interference filter yielded a system transmission efficiency of 61.5%. This reduced the incident power level of the laser from 215 mW to an effective power level of 132 mW; this corresponded to an incident intensity at the focal point of 4.23 kW/cm^2 . During shutter closure, irradiations were carried out in 0.2-s intervals. When the shutter was opened, the low-power beam, which was reflected off an optical flat and through the optical system, was used for aligning the next vessel selected for irradiation.
One eye of each rabbit was subjected to laser applications that were directed toward the vascular branching points of the limbal and corneal feeder vessels adjacent to the sites of lipid deposits. […] Initially, the irradiated segment appeared yellow-orange because the fluorescence of rose bengal had been absorbed into erythrocyte plasma membranes and plasma proteins. As platelets accumulated, the fluorescence became yellowish and less intense. […]

O=C([O-])c1c(Cl)c(Cl)c(Cl)c(Cl)c1-c1c2cc(I)c(=O)c(I)c-2oc2c(I)c([O-])c(I)cc12.[Na+].[Na+] [rose bengal]
complete occlusion, irradiation time ([1]; 40 mg/kg i.v., 514.5 nm argon laser): ≤ 3 min
energy fluence at occlusion ([1]; 514.5 nm argon laser): about 35 kJ/sq cm
total energy deposited at occlusion ([1]; 514.5 nm argon laser): 140 to 180 joules (J)
occlusion, irradiation time ([1]; one-half the standard dose (20 mg/kg), two rats): ≤ 4 min
Corneal Cholesterol Concentration, Difference Between Treated and Untreated Eyes ([2]; 45 mg/kg): 0.144 g of Cholesterol/100 g of Corn and 0.007 g of Cholesterol/100 g of Corn and 0.076 g of Cholesterol/100 g of Corn and 0.149 g of Cholesterol/100 g of Corn and 0.105 g of Cholesterol/100 g of Corn and 0.129 g of Cholesterol/100 g of Corn and 0.058 g of Cholesterol/100 g of Corn
Corneal Cholesterol Concentration, Difference Between Treated and Untreated Eyes, % ([2]; 45 mg/kg): -36.5% and -2.5% and -24.3% and -41.7% and -29.1% and -42.0% and -21.9%
Corneal Cholesterol Concentration, Difference Between Treated and Untreated Eyes ([2]; 60 mg/kg (45 plus booster 15)): 0.219 g of Cholesterol/100 g of Corn and 0.206 g of Cholesterol/100 g of Corn
Corneal Cholesterol Concentration, Difference Between Treated and Untreated Eyes, % ([2]; 60 mg/kg (45 plus booster 15)): -58.6% and -51.8%
average reduction of corneal cholesterol content ([2]; laser-treated vs control eyes): 36%
